From article PMC8011784, “Chronic peptide-based GIP receptor inhibition exhibits modest glucose metabolic changes in mice when administered either alone or combined with GLP-1 agonism” (PLoS ONE, 2021)

Legend:
DIO mice [1] = test: Chronic GIPA-2 study: body weight and food intake in DIO mice; format: in vivo, mouse; conditions: 28 days, HFD; liraglutide 0.2 mg/kg SC daily, GIPA-2 10 mg/kg SC daily; n = 10; vs vehicle (combination: vs liraglutide)
Method: For studying the chronic effects of GIPA-2, male C57BL/6JRj mice (n = 40) were fed a HFD (SSNIFF® diet #12492) for 43 weeks. DIO mice were randomized (n = 10 per group) based on baseline blood glucose and body weight. Liraglutide was dissolved in PBS plus 0.1% BSA (Vehicle1) and GIPA-2 in PBS (vehicle 2). Mice received one of the following four treatments daily for 28 days while still maintained on HFD: (1) vehicle 1 (SC) and vehicle 2 (SC); (2) 0.2 mg/kg liraglutide (SC) and vehicle 2; (3) vehicle 1 (SC) and 10 mg/kg GIPA-2 (SC); and (4) 0.2 mg/kg liraglutide (SC) plus 10 mg/kg GIPA-2 (SC). […] Fasted (4 hrs) blood glucose and insulin were measured on study day -4, 10 and 26. […] Blood glucose was measured before their daily dosing and at 0, 15, 30 60, 120, 180 and 240 min after glucose administration. […] Blood glucose was measured before their daily dosing and at 0, 15, 30 60, 120, 180 min after glucose administration. […]
Fig 2 Effects of chronic GIPR antagonism on body weight, food intake, and fasting blood glucose and insulin. […] Statistical analysis was calculated using two-way ANOVA with Tukey’s post-hoc test and one-way ANOVA for AUC with Dunnett’s post-hoc test. *: p< 0.05, **: p < 0.01, ***: p < 0.001, ****: p<0.0001 compared to vehicle.

DIO mice [2] = test: Chronic GIPA-2 study: circulating lipids, liver and fat depots in DIO mice; format: in vivo, mouse; conditions: day 28, n = 10
Method: For studying the chronic effects of GIPA-2, male C57BL/6JRj mice (n = 40) were fed a HFD (SSNIFF® diet #12492) for 43 weeks. DIO mice were randomized (n = 10 per group) based on baseline blood glucose and body weight. Liraglutide was dissolved in PBS plus 0.1% BSA (Vehicle1) and GIPA-2 in PBS (vehicle 2). Mice received one of the following four treatments daily for 28 days while still maintained on HFD: (1) vehicle 1 (SC) and vehicle 2 (SC); (2) 0.2 mg/kg liraglutide (SC) and vehicle 2; (3) vehicle 1 (SC) and 10 mg/kg GIPA-2 (SC); and (4) 0.2 mg/kg liraglutide (SC) plus 10 mg/kg GIPA-2 (SC). GIPA-2 dose levels were selected based on doses shown to sufficiently antagonize insulinotropic actions of exogenous GIP in acute IPGTT studies (Fig 1J) adjusted for single daily dosing over the 4-week treatment period. Fasted (4 hrs) blood glucose and insulin were measured on study day -4, 10 and 26. An OGTT was performed on day 17. On the day of the OGTT the fasted animals (4 hrs) received their daily doses of vehicles, liraglutide and GIPA-2 one hour before receiving a glucose bolus (2 g/kg). Blood glucose was measured before their daily dosing and at 0, 15, 30 60, 120, 180 and 240 min after glucose administration. An insulin tolerance test (ITT) was performed on day 24. Fasting (4 hrs) mice received their daily doses of vehicles, liraglutide and GIPA-2 one hour before receiving insulin (0.5 U/kg, intraperitoneal injection). Blood glucose was measured before their daily dosing and at 0, 15, 30 60, 120, 180 min after glucose administration. Similar measurements were performed as in the GIPA-1 study. […]
Fasting blood glucose was measured using a BIOSEN c-Line glucose meter (EKF-Diagnostics), insulin was measured using the Meso Scale Diagnostics platform, TG and TC were measured using commercial kits (Roche Diagnostics) on the Cobas C-501 autoanalyzer (Roche), and FFA levels were measured using a Wako Chemicals kit on the Cobas C-501 autoanalyzer, all according to the manufacturers’ instructions. Homeostatic model assessment of insulin resistance (HOMA-IR) was calculated using the following equation: [fasting serum glucose (mmol/L) × fasting serum insulin (pmol/L) / 22.5] to assess insulin resistance.
Fig 4 The effect of GIPR antagonism alone or in combination with liraglutide on lipid homeostasis in DIO mice. […] Statistical analysis was calculated using one-way ANOVA with Dunnett’s post-hoc test. *: p< 0.05, **: p < 0.01, ***: p < 0.001, ****: p<0.0001 compared to vehicle.
Supplementary file pone.0249239.s002.tif: S2 Fig The effect of GIPR antagonists alone or in combination with liraglutide on lipid homeostasis in DIO mice. […] Statistical analysis was calculated using one-way ANOVA with Dunnett’s post-hoc test. *: p< 0.05, **: p < 0.01, ***: p < 0.001, ****: p<0.0001 compared to vehicle. […]

liraglutide
body weight (DIO mice [1]): reduced both body weight and food intake | cumulative food intake (DIO mice [1]): reduced both body weight and food intake | circulating total cholesterol (TC) (DIO mice [2]): significantly reduced circulating TC and liver TG concentrations | liver TG (DIO mice [2]): significantly reduced circulating TC and liver TG concentrations | plasma FFA (DIO mice [2]): no effect on either plasma TG or concentrations of circulating FFA | plasma TG (DIO mice [2]): no effect on either plasma TG or concentrations of circulating FFA
